Measurements published in ChEMBL document CHEMBL1136657, “Novel ether derivatives of mannopeptimycin glycopeptide antibiotic” (2003).

Legend:
Enterococcus faecalis [1] = assay: Minimum inhibitory concentration against Enterococcus faecalis (GC 4555) was determined; format: functional
Enterococcus faecalis [2] = assay: Minimum inhibitory concentration against Enterococcus faecalis (GC 2691) was determined; format: functional
Enterococcus faecalis [3] = assay: Minimum inhibitory concentration against Enterococcus faecalis (GC 2242) was determined; format: functional
Staphylococcus aureus [4] = assay: Minimum inhibitory concentration against Staphylococcus aureus (GC 4544) was determined; format: functional
Streptococcus pyogenes = assay: Minimum inhibitory concentration against Streptococcus pyogenes (GC 4563) was determined; format: functional
Enterococcus avium = assay: Minimum inhibitory concentration against Enterococcus avium (GC 4558) was determined; format: functional
Bacillus cereus = assay: Minimum inhibitory concentration against Bacillus cereus (GC 4561) was determined; format: functional
Staphylococcus aureus [5] = assay: Minimum inhibitory concentration against Staphylococcus aureus (GC 1131) was determined; format: functional
Staphylococcus aureus [6] = assay: Minimum inhibitory concentration against Staphylococcus aureus (GC 4542) was determined; format: functional
Streptococcus pneumoniae [7] = assay: Minimum inhibitory concentration against Streptococcus pneumoniae (GC 6242) was determined; format: functional
[8] = Minimum inhibitory concentration against SCN (GC 4547) was determined; format: functional
[9] = Minimum inhibitory concentration against SCN (GC 6257) was determined; format: functional
Staphylococcus aureus [10] = assay: Minimum inhibitory concentration against Staphylococcus aureus (GC 2216) was determined; format: functional
Streptococcus pneumoniae [11] = assay: Minimum inhibitory concentration against Streptococcus pneumoniae (GC 4565) was determined; format: functional
Escherichia coli [12] = assay: Minimum inhibitory concentration against Escherichia coli (GC 4560) was determined; format: functional
Morganella morganii = assay: Minimum inhibitory concentration against Morganella morganii (GC 4381) was determined; format: functional
Escherichia coli [13] = assay: Minimum inhibitory concentration against Escherichia coli (GC 4564) was determined; format: functional
Enterococcus faecium [14] = assay: Minimum inhibitory concentration against Enterococcus faecium (GC 4557) was determined; format: functional
Staphylococcus aureus [15] = assay: Minimum inhibitory concentration against Staphylococcus aureus (GC 3066) was determined; format: functional
[16] = Minimum inhibitory concentration against SCN (GC 4548) was determined; format: functional
Streptococcus pneumoniae [17] = assay: Minimum inhibitory concentration against Streptococcus pneumoniae (GC 1894) was determined; format: functional
Enterococcus faecalis [18] = assay: Minimum inhibitory concentration against Enterococcus faecalis (GC 4553) was determined; format: functional
Staphylococcus aureus [19] = assay: Minimum inhibitory concentration against Staphylococcus aureus (GC 4543) was determined; format: functional
Enterococcus faecalis [20] = assay: Minimum inhibitory concentration against Enterococcus faecalis (GC 6189) was determined; format: functional
Staphylococcus aureus [21] = assay: Minimum inhibitory concentration against Staphylococcus aureus (GC 4541 was determined; format: functional
Candida albicans = assay: Minimum inhibitory concentration against Candida albicans GC 3066 was determined; format: functional
Micrococcus luteus = assay: Minimum inhibitory concentration against Sarcina lutea (GC 4562) was determined; format: functional
[22] = Minimum inhibitory concentration against SCN (GC 4549) was determined; format: functional
Staphylococcus aureus [23] = assay: Minimum inhibitory concentration against Staphylococcus aureus (GC 3051) was determined; format: functional
Pseudomonas aeruginosa = assay: Minimum inhibitory concentration against Pseudomonas aeruginosa (GC 2214) control was determined; format: functional
[24] = test system: Staphylococcus haemolyticus; assay: Minimum inhibitory concentration against Staphylococcus haemolyticus (GC 4546) was determined
Enterococcus faecalis [25] = assay: Minimum inhibitory concentration against Enterococcus faecalis (GC 3059) was determined; format: functional
Escherichia coli [26] = assay: Minimum inhibitory concentration against Escherichia coli (GC 2203) was determined; format: functional
Staphylococcus aureus [27] = assay: Minimum inhibitory concentration against Staphylococcus aureus (GC 4545) was determined; format: functional
Enterococcus faecium [28] = assay: Minimum inhibitory concentration against Enterococcus faecium (GC 2243) was determined; format: functional
Enterococcus faecalis [29] = assay: Minimum inhibitory concentration against Enterococcus faecalis (GC 4554) was determined; format: functional
Enterococcus faecium [30] = assay: Minimum inhibitory concentration against Enterococcus faecium (GC 4556) was determined; format: functional
Streptococcus agalactiae = assay: Minimum inhibitory concentration against Streptococcus agalactiae (GC4564) was determined; format: functional
[31] = Minimum inhibitory concentration against SCN (GC 4551) was determined; format: functional
Enterococcus faecalis [32] = assay: Minimum inhibitory concentration against Enterococcus faecalis (GC 4552) was determined; format: functional
Mus musculus = assay: In vivo activity against Staphylococcus aureus smith was determined after iv administration in mice; format: functional
Staphylococcus aureus [33] = assay: Minimum inhibitory concentration against Staphylococcus aureus smith; format: functional

COc1ccc2cc(CO[C@H]3[C@H](O)[C@@H](CO)OC(O[C@H]4[C@H](O)[C@H](O)[C@@H](Oc5ccc(C[C@H]6NC(=O)[C@H]([C@@H](C)c7ccccc7)NC(=O)CNC(=O)[C@H](CO)NC(=O)[C@@H]([C@@H](O)[C@@H]7CN=C(N)N7[C@H]7O[C@H](O)[C@@H](O)[C@H](O)[C@@H]7O)NC(=O)[C@H]([C@@H](O)[C@@H]7CN=C(N)N7)NC6=O)cc5)O[C@@H]4CO)[C@H]3O)ccc2c1 (some centres undefined)
8 mg/L: MIC (Enterococcus faecalis [1]) | MIC (Enterococcus faecalis [2]) | MIC (Enterococcus faecalis [3]) | MIC (Enterococcus faecalis [18]) | MIC (Enterococcus faecalis [25]) | MIC (Enterococcus faecium [28]) | MIC (Enterococcus faecalis [29]) | MIC (Enterococcus faecium [30]) | MIC (Enterococcus faecalis [32])
0.25 mg/L: MIC (Streptococcus pneumoniae [7]) | MIC (Streptococcus pneumoniae [11]) | MIC (Enterococcus faecium [14]) | MIC (Micrococcus luteus)
> 64 mg/L: MIC (Candida albicans)
2 mg/L: MIC (Enterococcus avium) | MIC (Bacillus cereus) | MIC [8] | MIC (Staphylococcus aureus [10]) | MIC (Staphylococcus aureus [15]) | MIC (Staphylococcus aureus [19]) | MIC (Staphylococcus aureus [21]) | MIC (Staphylococcus aureus [23]) | MIC (Staphylococcus aureus [27]) | MIC [31]
> 128 mg/L: MIC (Morganella morganii) | MIC (Pseudomonas aeruginosa)
4 mg/L: MIC (Staphylococcus aureus [4]) | MIC (Staphylococcus aureus [5]) | MIC (Enterococcus faecalis [20])
128 mg/L: MIC (Escherichia coli [13]) | MIC (Escherichia coli [26])
1 mg/L: MIC (Staphylococcus aureus [6]) | MIC [9] | MIC (Escherichia coli [12]) | MIC [16] | MIC [22] | MIC [24]
0.5 mg/L: MIC (Streptococcus pyogenes) | MIC (Streptococcus agalactiae)
0.12 mg/L: MIC (Streptococcus pneumoniae [17])

COc1ccc2cc(CO[C@H]3[C@H](O)[C@H](O)[C@@H](O[C@H]4[C@H](O)[C@H](O)[C@@H](Oc5ccc(C[C@H]6NC(=O)[C@H]([C@@H](C)c7ccccc7)NC(=O)CNC(=O)[C@H](CO)NC(=O)[C@@H]([C@@H](O)[C@@H]7CN=C(N)N7[C@H]7O[C@H](O)[C@@H](O)[C@H](O)[C@@H]7O)NC(=O)[C@H]([C@@H](O)[C@@H]7CN=C(N)N7)NC6=O)cc5)O[C@@H]4CO)O[C@@H]3CO)ccc2c1
64 mg/L: MIC (Morganella morganii)
0.5 mg/L: MIC (Staphylococcus aureus [5]) | MIC [8] | MIC (Staphylococcus aureus [19]) | MIC (Staphylococcus aureus [21]) | MIC (Staphylococcus aureus [33]) | MIC (Staphylococcus aureus [27])
0.06 mg/kg: ED50 (Mus musculus; Mus musculus, iv, read-out: ED50)
> 64 mg/L: MIC (Candida albicans) | MIC (Pseudomonas aeruginosa)
1 mg/L: MIC (Staphylococcus aureus [4]) | MIC (Bacillus cereus) | MIC (Staphylococcus aureus [10]) | MIC (Enterococcus faecium [14]) | MIC (Staphylococcus aureus [15]) | MIC (Enterococcus faecalis [20]) | MIC (Staphylococcus aureus [23])
≤ 0.06 mg/L: MIC (Streptococcus pyogenes) | MIC (Streptococcus pneumoniae [7]) | MIC (Streptococcus pneumoniae [11]) | MIC (Streptococcus pneumoniae [17]) | MIC (Micrococcus luteus) | MIC (Streptococcus agalactiae)
2 mg/L: MIC (Enterococcus faecalis [1]) | MIC (Enterococcus faecalis [2]) | MIC (Enterococcus faecalis [3]) | MIC (Enterococcus avium) | MIC (Enterococcus faecalis [18]) | MIC (Enterococcus faecalis [25]) | MIC (Enterococcus faecium [28]) | MIC (Enterococcus faecalis [29]) | MIC (Enterococcus faecium [30]) | MIC (Enterococcus faecalis [32])
0.12 mg/L: MIC [16] | MIC [22]
0.25 mg/L: MIC (Staphylococcus aureus [6]) | MIC [9] | MIC (Escherichia coli [12]) | MIC [24] | MIC [31]
32 mg/L: MIC (Escherichia coli [13]) | MIC (Escherichia coli [26])

COc1ccc2cc(CO[C@@H]3[C@@H](O[C@H]4[C@H](O)[C@H](O)[C@@H](Oc5ccc(C[C@H]6NC(=O)[C@H]([C@@H](C)c7ccccc7)NC(=O)CNC(=O)[C@H](CO)NC(=O)[C@@H]([C@@H](O)[C@@H]7CN=C(N)N7[C@H]7O[C@H](O)[C@@H](O)[C@H](O)[C@@H]7O)NC(=O)[C@H]([C@@H](O)[C@@H]7CN=C(N)N7)NC6=O)cc5)O[C@@H]4CO)O[C@H](CO)[C@@H](O)[C@@H]3O)ccc2c1
64 mg/L: MIC (Streptococcus pyogenes) | MIC [8] | MIC [16] | MIC (Staphylococcus aureus [19]) | MIC (Staphylococcus aureus [21]) | MIC [22] | MIC [24] | MIC [31]
32 mg/L: MIC (Streptococcus pneumoniae [7]) | MIC [9] | MIC (Streptococcus pneumoniae [11]) | MIC (Escherichia coli [12]) | MIC (Enterococcus faecium [14]) | MIC (Streptococcus agalactiae)
16 mg/L: MIC (Streptococcus pneumoniae [17]) | MIC (Micrococcus luteus)
128 mg/L: MIC (Staphylococcus aureus [4]) | MIC (Enterococcus avium) | MIC (Bacillus cereus) | MIC (Staphylococcus aureus [5]) | MIC (Staphylococcus aureus [10]) | MIC (Staphylococcus aureus [15]) | MIC (Enterococcus faecalis [18]) | MIC (Staphylococcus aureus [23]) | MIC (Staphylococcus aureus [27]) | MIC (Enterococcus faecium [28])
> 128 mg/L: MIC (Enterococcus faecalis [1]) | MIC (Enterococcus faecalis [2]) | MIC (Enterococcus faecalis [3]) | MIC (Staphylococcus aureus [6]) | MIC (Morganella morganii) | MIC (Escherichia coli [13]) | MIC (Enterococcus faecalis [20]) | MIC (Pseudomonas aeruginosa) | MIC (Enterococcus faecalis [25]) | MIC (Escherichia coli [26]) | MIC (Enterococcus faecalis [29]) | MIC (Enterococcus faecium [30]) | MIC (Enterococcus faecalis [32])
> 64 mg/L: MIC (Candida albicans)

COc1ccc2cc(COC[C@H]3O[C@H](O[C@H]4[C@H](O)[C@H](O)[C@@H](Oc5ccc(C[C@H]6NC(=O)[C@H]([C@@H](C)c7ccccc7)NC(=O)CNC(=O)[C@H](CO)NC(=O)[C@@H]([C@@H](O)[C@@H]7CN=C(N)N7[C@H]7O[C@H](O)[C@@H](O)[C@H](O)[C@@H]7O)NC(=O)[C@H]([C@@H](O)[C@@H]7CN=C(N)N7)NC6=O)cc5)O[C@@H]4CO)[C@@H](O)[C@@H](O)[C@@H]3O)ccc2c1
0.12 mg/L: MIC (Staphylococcus aureus [23]) | MIC (Pseudomonas aeruginosa)
4 mg/L: MIC (Enterococcus faecalis [20]) | MIC (Enterococcus faecalis [25])
0.5 mg/L: MIC [9] | MIC (Streptococcus pneumoniae [11]) | MIC [16]
0.25 mg/L: MIC (Enterococcus faecalis [2]) | MIC (Streptococcus agalactiae)
1 mg/L: MIC [8] | MIC (Staphylococcus aureus [19]) | MIC (Staphylococcus aureus [21]) | MIC [22] | MIC (Staphylococcus aureus [33]) | MIC [24] | MIC (Escherichia coli [26]) | MIC (Staphylococcus aureus [27])
≤ 0.06 mg/L: MIC (Streptococcus pneumoniae [7])
0.12 mg/kg: ED50 (Mus musculus)
64 mg/L: MIC (Bacillus cereus)
2 mg/L: MIC (Staphylococcus aureus [4]) | MIC (Enterococcus avium) | MIC (Staphylococcus aureus [5]) | MIC (Staphylococcus aureus [6]) | MIC (Staphylococcus aureus [10]) | MIC (Staphylococcus aureus [15]) | MIC (Micrococcus luteus) | MIC [31]
> 64 mg/L: MIC (Escherichia coli [12]) | MIC (Morganella morganii) | MIC (Escherichia coli [13]) | MIC (Candida albicans)
8 mg/L: MIC (Enterococcus faecalis [1]) | MIC (Enterococcus faecalis [3]) | MIC (Streptococcus pyogenes) | MIC (Enterococcus faecium [14]) | MIC (Streptococcus pneumoniae [17]) | MIC (Enterococcus faecalis [18]) | MIC (Enterococcus faecium [28]) | MIC (Enterococcus faecalis [29]) | MIC (Enterococcus faecium [30]) | MIC (Enterococcus faecalis [32])
